In brackets after ≈: the same amount, converted by molar mass.
Tests used:
Type in all cases: cell-based
[1] = system: Streptococcus pyogenes 1079; assay: MIC, microtiter broth dilution (NCCLS M100-S14), S. pyogenes 1079 (ermB); details: S. pyogenes 1079 (ermB)
How it was run: (§1)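 Broth dilution was run in microtiter trays and read per NCCLS M100-S14 to give MICs. Compounds came from 40 mg/ml DMSO stock solutions. The strain panel paired macrolide-susceptible parents with macrolide-resistant derivatives.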

[2] = system: Streptococcus pneumoniae 1016; assay: MIC, microtiter broth dilution (NCCLS M100-S14), S. pneumoniae 1016 (susceptible); details: S. pneumoniae 1016 (susceptible)
How it was run: as §1

[3] = system: Streptococcus pneumoniae 1095; details: S. pneumoniae 1095 (ermB); microtiter broth dilution
How it was run: as §1

[4] = system: Streptococcus pneumoniae 1175; details: S. pneumoniae 1175 (mefA); microtiter broth dilution
How it was run: as §1

[5] = system: Haemophilus influenzae 1218; assay: MIC, microtiter broth dilution (NCCLS M100-S14), H. influenzae 1218 (susceptible); details: H. influenzae 1218 (susceptible)
How it was run: as §1

Row | SMILES | MIC S. pyogenes 1079 [1] [µg/mL] | MIC S. pneumo. 1016 [2] [µg/mL] | MIC S. pneumo. 1095 [3] [µg/mL] | MIC S. pneumo. 1175 [4] [µg/mL] | MIC H. influenzae 1218 [5] [µg/mL]
1 | CC[C@H]1OC(=O)[C@H](C)C(=O)[C@H](C)[C@@H](O[C@@H]2O[C@H](C)C[C@H](N(C)C)[C@H]2O)[C@](C)(OC)C[C@@H](C)C(=O)[C@H](C)[C@H]2N(CC3(O)CN(C(=O)c4cccc5ccncc45)C3)C(=O)O[C@]12C [7.24] | >64.00 | <0.06 | 2 (≈ 2.34 µM) | 1 (≈ 1.17 µM) | 2 (≈ 2.34 µM)
2 | CC[C@H]1OC(=O)[C@H](C)C(=O)[C@H](C)[C@@H](O[C@@H]2O[C@H](C)C[C@H](N(C)C)[C@H]2O)[C@](C)(OC)C[C@@H](C)C(=O)[C@H](C)[C@H]2N(CC3(O)CN(C(=O)c4cnc5ncccc5c4)C3)C(=O)O[C@]12C [7.25] | >64.00 | <0.06 | <0.06 | 2 (≈ 2.34 µM) | 1 (≈ 1.17 µM)
3 | CC[C@H]1OC(=O)[C@H](C)C(=O)[C@H](C)[C@@H](O[C@@H]2O[C@H](C)C[C@H](N(C)C)[C@H]2O)[C@](C)(OC)C[C@@H](C)C(=O)[C@H](C)[C@H]2N(CC3(O)CN(C(=O)c4cc5cccnc5[nH]4)C3)C(=O)O[C@]12C [7.26] | >64.00 | <0.06 | 0.12 (≈ 0.143 µM) | 0.25 (≈ 0.297 µM) | 0.5 (≈ 0.594 µM)
4 | CC[C@H]1OC(=O)[C@H](C)C(=O)[C@H](C)[C@@H](O[C@@H]2O[C@H](C)C[C@H](N(C)C)[C@H]2O)[C@](C)(OC)C[C@@H](C)C(=O)[C@H](C)[C@H]2N(CC3(O)CN(C(=O)c4cc5ccncc5[nH]4)C3)C(=O)O[C@]12C [7.27] | >64.00 | <0.06 | <0.06 | 1 (≈ 1.19 µM) | 1 (≈ 1.19 µM)
5 | CC[C@H]1OC(=O)[C@H](C)C(=O)[C@H](C)[C@@H](O[C@@H]2O[C@H](C)C[C@H](N(C)C)[C@H]2O)[C@](C)(OC)C[C@@H](C)C(=O)[C@H](C)[C@H]2N(CC3(O)CN(C(=O)c4nc5ccccc5[nH]4)C3)C(=O)O[C@]12C.O=CO [7.28] | >64.00 | <0.06 | <0.06 | 0.25 | 2
6 | CC[C@H]1OC(=O)[C@H](C)C(=O)[C@H](C)[C@@H](O[C@@H]2O[C@H](C)C[C@H](N(C)C)[C@H]2O)[C@](C)(OC)C[C@@H](C)C(=O)[C@H](C)[C@H]2N(CC3(O)CN(C(=O)c4cn5ccccc5n4)C3)C(=O)O[C@]12C.O=CO [7.29] | >64.00 | <0.06 | 0.25 | 8 | 1
7 | CC[C@H]1OC(=O)[C@H](C)C(=O)[C@H](C)[C@@H](O[C@@H]2O[C@H](C)C[C@H](N(C)C)[C@H]2O)[C@](C)(OC)C[C@@H](C)C(=O)[C@H](C)[C@H]2N(CC3(O)CN(C(=O)c4cc5ccccn5n4)C3)C(=O)O[C@]12C.O=CO [7.30] | >64.00 | <0.06 | 0.25 | 0.25 | 8
8 | CC[C@H]1OC(=O)[C@H](C)C(=O)[C@H](C)[C@@H](O[C@@H]2O[C@H](C)C[C@H](N(C)C)[C@H]2O)[C@](C)(OC)C[C@@H](C)C(=O)[C@H](C)[C@H]2N(CC3(O)CN(C(=O)c4ccc(-n5cccn5)nc4)C3)C(=O)O[C@]12C.O=CO [7.31] | >64.00 | <0.06 | 4 | 0.12 | 8
9 | CC[C@H]1OC(=O)[C@H](C)C(=O)[C@H](C)[C@@H](O[C@@H]2O[C@H](C)C[C@H](N(C)C)[C@H]2O)[C@](C)(OC)C[C@@H](C)C(=O)[C@H](C)[C@H]2N(CC3(O)CN(C(=O)c4cc5ncccc5[nH]4)C3)C(=O)O[C@]12C.O=CO [7.32] | >64.00 | <0.06 | <0.06 | 2 | 2
10 | CCC1OC(=O)C(C)C(=O)C(C)C(OC2OC(C)CC(N(C)C)C2O)C(C)(OC)CC(C)C(=O)C(C)C2N(CC3CCCN3Cc3ccno3)C(=O)OC12C (stereo not shown) [10.01] | >64.00 | <0.06 | 0.25 (≈ 0.322 µM) | 0.5 (≈ 0.644 µM) | 1 (≈ 1.29 µM)
11 | CCC1OC(=O)C(C)C(=O)C(C)C(OC2OC(C)CC(N(C)C)C2O)C(C)(OC)CC(C)C(=O)C(C)C2N(CC3CCCN3Cc3c[nH]nn3)C(=O)OC12C (stereo not shown) [10.02] | >64.00 | <0.06 | 0.25 (≈ 0.322 µM) | 2 (≈ 2.57 µM) | 1 (≈ 1.29 µM)
12 | CCC1OC(=O)C(C)C(=O)C(C)C(OC2OC(C)CC(N(C)C)C2O)C(C)(OC)CC(C)C(=O)C(C)C2N(CC3CCCN3Cc3cccc4cnccc34)C(=O)OC12C (stereo not shown) [10.03] | 64 (≈ 76.5 µM) | <0.06 | 0.25 (≈ 0.299 µM) | 0.25 (≈ 0.299 µM) | 8 (≈ 9.56 µM)
13 | CCC1OC(=O)C(C)C(=O)C(C)C(OC2OC(C)CC(N(C)C)C2O)C(C)(OC)CC(C)C(=O)C(C)C2N(CC3CCCN3Cc3ccnc4ccccc34)C(=O)OC12C (stereo not shown) [10.04] | 16 (≈ 19.1 µM) | <0.06 | <0.06 | <0.06 | 0.5 (≈ 0.597 µM)
14 | CCC1OC(=O)C(C)C(=O)C(C)C(OC2OC(C)CC(N(C)C)C2O)C(C)(OC)CC(C)C(=O)C(C)C2N(CC3CCCN3Cc3cccc4cccnc34)C(=O)OC12C (stereo not shown) [10.05] | >64.00 | <0.06 | <0.06 | 0.12 (≈ 0.143 µM) | 4 (≈ 4.78 µM)
15 | CCC1OC(=O)C(C)C(=O)C(C)C(OC2OC(C)CC(N(C)C)C2O)C(C)(OC)CC(C)C(=O)C(C)C2N(CC3CCCN3C(=O)c3ccc4ncccc4c3)C(=O)OC12C (stereo not shown) [10.06] | 64 (≈ 75.2 µM) | <0.06 | <0.06 | 0.12 (≈ 0.141 µM) | 2 (≈ 2.35 µM)
16 | CCC1OC(=O)C(C)C(=O)C(C)C(OC2OC(C)CC(N(C)C)C2O)C(C)(OC)CC(C)C(=O)C(C)C2N(CC3CCCN3C(=O)c3cnc4ccccc4c3)C(=O)OC12C (stereo not shown) [10.07] | >64.00 | <0.06 | <0.06 | 0.25 (≈ 0.294 µM) | 2 (≈ 2.35 µM)
17 | CCC1OC(=O)C(C)C(=O)C(C)C(OC2OC(C)CC(N(C)C)C2O)C(C)(OC)CC(C)C(=O)C(C)C2N(CC3CCCN3C(=O)c3ccc4ccccc4n3)C(=O)OC12C (stereo not shown) [10.08] | >64.00 | <0.06 | <0.06 | 2 (≈ 2.35 µM) | 2 (≈ 2.35 µM)

— patent US7462600B2, “Macrolides” (Pfizer Inc, priority 2004, dated 2008)
